Source: ChEMBL document CHEMBL1201862, “PubChem BioAssay data set” (2004)
Active and inactive are the calls of the source.

How the values were obtained:
Assay type in all cases: functional
[1] = biological target: T1, Serine/threonine-protein kinase PLK4 (Homo sapiens, UniProt O00444);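 also: PLK4 measured as one member of a kinome-wide kinase profiling panel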
T1 sequence (O00444 whole entry): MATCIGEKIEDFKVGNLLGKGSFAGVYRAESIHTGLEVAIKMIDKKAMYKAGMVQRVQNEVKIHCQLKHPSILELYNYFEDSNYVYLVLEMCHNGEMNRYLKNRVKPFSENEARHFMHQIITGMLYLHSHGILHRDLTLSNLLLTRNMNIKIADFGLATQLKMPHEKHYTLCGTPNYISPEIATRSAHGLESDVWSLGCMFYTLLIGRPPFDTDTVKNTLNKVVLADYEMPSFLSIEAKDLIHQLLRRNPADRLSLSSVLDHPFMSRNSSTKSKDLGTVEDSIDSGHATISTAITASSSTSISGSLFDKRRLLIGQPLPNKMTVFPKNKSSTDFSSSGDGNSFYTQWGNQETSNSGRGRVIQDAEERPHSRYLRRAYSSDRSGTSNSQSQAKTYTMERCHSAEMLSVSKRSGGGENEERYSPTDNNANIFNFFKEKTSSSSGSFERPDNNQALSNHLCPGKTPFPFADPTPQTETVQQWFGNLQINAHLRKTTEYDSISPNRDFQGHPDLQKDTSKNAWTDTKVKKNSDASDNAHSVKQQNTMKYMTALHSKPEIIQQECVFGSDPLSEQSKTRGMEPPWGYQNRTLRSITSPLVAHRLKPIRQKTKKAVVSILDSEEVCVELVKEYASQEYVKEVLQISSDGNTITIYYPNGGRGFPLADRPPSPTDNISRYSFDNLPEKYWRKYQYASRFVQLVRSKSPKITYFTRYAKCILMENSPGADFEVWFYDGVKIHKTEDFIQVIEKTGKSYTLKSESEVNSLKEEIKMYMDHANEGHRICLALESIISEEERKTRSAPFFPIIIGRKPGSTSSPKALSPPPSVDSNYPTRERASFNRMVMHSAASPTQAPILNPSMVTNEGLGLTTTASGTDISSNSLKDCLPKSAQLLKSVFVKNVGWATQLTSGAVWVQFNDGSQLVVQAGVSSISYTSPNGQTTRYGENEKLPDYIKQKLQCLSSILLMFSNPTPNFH

[2] = biological target: T2, Tyrosine-protein kinase receptor TYRO3 (Homo sapiens, UniProt Q06418);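 also: TYRO3 value obtained as one member of a kinome-wide profiling panel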
T2 sequence (Q06418 whole entry): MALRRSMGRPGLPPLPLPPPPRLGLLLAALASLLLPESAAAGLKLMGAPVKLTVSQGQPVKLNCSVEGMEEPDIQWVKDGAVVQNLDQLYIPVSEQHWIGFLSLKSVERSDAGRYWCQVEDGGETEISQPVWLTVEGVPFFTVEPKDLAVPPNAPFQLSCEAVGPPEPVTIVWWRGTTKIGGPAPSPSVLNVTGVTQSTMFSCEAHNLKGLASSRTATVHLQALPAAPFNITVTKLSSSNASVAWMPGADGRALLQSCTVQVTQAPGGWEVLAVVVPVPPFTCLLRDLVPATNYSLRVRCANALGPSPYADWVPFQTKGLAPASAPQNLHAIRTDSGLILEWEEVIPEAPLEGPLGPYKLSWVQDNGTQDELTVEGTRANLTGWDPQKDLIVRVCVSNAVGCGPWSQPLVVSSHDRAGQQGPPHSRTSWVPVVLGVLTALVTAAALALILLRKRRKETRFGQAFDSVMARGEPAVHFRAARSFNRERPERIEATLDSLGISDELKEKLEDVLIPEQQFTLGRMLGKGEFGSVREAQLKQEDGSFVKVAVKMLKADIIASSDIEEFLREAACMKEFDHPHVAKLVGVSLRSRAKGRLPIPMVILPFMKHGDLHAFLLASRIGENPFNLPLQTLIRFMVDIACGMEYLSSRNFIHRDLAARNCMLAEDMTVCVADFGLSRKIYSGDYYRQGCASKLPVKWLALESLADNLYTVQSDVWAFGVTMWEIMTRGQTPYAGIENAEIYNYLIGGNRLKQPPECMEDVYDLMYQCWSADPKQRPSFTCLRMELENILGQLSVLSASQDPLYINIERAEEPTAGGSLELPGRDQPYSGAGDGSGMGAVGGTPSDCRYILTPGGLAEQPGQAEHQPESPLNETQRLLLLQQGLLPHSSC

[3] = biological target: T3, Tyrosine-protein kinase ITK/TSK (Homo sapiens, UniProt Q08881);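 also: affinity for ITK measured as one member of a broad kinase panel profiling binding across the kinome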
T3 sequence (Q08881 whole entry): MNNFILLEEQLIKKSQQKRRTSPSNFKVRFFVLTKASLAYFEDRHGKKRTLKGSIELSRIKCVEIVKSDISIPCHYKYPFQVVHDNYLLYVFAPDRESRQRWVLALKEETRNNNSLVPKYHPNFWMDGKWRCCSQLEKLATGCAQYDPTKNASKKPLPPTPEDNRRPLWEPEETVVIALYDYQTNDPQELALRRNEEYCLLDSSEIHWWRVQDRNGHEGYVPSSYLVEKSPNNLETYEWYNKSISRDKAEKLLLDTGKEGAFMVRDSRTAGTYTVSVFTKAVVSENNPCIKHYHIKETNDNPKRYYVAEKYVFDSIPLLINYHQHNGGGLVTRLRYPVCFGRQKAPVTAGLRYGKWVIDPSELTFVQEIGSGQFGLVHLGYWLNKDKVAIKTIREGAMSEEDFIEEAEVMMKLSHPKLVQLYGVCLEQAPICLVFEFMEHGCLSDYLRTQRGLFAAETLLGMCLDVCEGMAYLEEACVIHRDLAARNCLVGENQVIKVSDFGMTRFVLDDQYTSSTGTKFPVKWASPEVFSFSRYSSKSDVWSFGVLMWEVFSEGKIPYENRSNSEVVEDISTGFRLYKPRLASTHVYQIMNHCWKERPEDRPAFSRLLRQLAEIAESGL

[4] = biological target: Casein kinase I isoform delta (Homo sapiens, UniProt P48730);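 also: measured as one member (CSNK1D) of a kinome panel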
Casein kinase I isoform delta, sequence (P48730 whole entry, canonical isoform): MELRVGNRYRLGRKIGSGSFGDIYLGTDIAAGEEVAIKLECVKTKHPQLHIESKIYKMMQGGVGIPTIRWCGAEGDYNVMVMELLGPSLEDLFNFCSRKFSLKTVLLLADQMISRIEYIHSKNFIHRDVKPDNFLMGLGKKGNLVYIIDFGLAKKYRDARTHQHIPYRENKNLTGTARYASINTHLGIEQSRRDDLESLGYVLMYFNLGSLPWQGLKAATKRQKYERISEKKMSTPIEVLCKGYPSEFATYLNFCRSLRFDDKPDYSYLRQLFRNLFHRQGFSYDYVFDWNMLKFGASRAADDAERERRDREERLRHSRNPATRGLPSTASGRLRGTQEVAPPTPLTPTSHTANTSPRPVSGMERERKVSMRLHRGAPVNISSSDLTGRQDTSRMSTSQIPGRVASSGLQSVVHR

[5] = biological target: Calcium/calmodulin-dependent protein kinase type 1 (Homo sapiens, UniProt Q14012)
Calcium/calmodulin-dependent protein kinase type 1, sequence (Q14012 whole entry): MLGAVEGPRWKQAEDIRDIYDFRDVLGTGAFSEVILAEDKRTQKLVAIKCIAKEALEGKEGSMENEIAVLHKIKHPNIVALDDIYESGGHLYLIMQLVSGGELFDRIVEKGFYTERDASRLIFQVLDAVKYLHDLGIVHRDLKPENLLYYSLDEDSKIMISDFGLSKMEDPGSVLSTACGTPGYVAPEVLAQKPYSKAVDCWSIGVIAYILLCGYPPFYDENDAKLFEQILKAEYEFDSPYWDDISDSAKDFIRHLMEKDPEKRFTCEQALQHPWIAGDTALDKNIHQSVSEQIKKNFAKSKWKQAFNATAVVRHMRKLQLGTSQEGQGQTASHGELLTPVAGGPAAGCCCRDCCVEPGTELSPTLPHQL

[6] = biological target: cAMP-dependent protein kinase catalytic subunit alpha (Homo sapiens, UniProt P17612)
[7] = biological target: Dual specificity tyrosine-phosphorylation-regulated kinase 1A (Homo sapiens, UniProt Q13627);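 also: measured against DYRK1A as one member of a broad kinome profiling panel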

## NC(=O)c1cc(-c2ccnc(N)n2)[nH]c1-c1ccc(Cl)cc1Cl
[1]
  Ki: 501 nM (active)
  pKi: 6.3
[2]
  Ki: > 2000 nM (inactive)
[3]
  Ki: > 1580 nM (inactive)
[4]
  Ki: 15.8 nM (active)
  pKi: 7.8
[5]
  Ki: > 3980 nM (inactive)
[6]
  Ki: 398 nM (active)
  pKi: 6.4
[7]
  Ki: 0.794 nM (active)
  pKi: 9.1

## Cc1ccc(-n2nc(C(C)(C)C)cc2NC(=O)Nc2ccc(OCCN3CCOCC3)c3ccccc23)cc1 [DORAMAPIMOD]
[1]
  Ki: > 3980 nM (inactive)
[2]
  Ki: 2000 nM (active)
[3]
  Ki: > 1580 nM (inactive)
[4]
  Ki: > 7940 nM (inactive)
[5]
  Ki: > 7940 nM (inactive)
[6]
  Ki: > 2000 nM (inactive)
[7]
  Ki: > 2000 nM (inactive)

## NC(COc1cncc(-c2ccc3c(c2)C(=Cc2ccco2)C(=O)N3)c1)Cc1c[nH]c2ccccc12 (stereo not given)
[1]
  Ki: 200 nM (active)
[2]
  Ki: > 2000 nM (inactive)
[3]
  Ki: 1260 nM (active)
[4]
  Ki: 398 nM (active)
[5]
  Ki: 1260 nM (active)
[6]
  Ki: 12.6 nM (active)
[7]
  Ki: 2.51 nM (active)
